# Values quoted from earlier work as cited in US7485427B1, “Photocleavable bioreactive agents” (The Trustees of Boston University, priority 1994, dated 2009).
# Target: avidin (Gallus gallus, UniProt P02701)
# Settings: binding between avidin and biotin
# Sequence of avidin (P02701 25-152): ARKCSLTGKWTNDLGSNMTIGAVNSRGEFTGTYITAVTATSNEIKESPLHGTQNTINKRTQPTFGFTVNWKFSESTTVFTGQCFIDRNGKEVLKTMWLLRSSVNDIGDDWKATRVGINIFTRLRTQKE
smiles,measurement,value
O=C(O)CCCC[C@@H]1SC[C@@H]2NC(=O)N[C@@H]21 [biotin],association constant (Ka),about 10^15 M^−1
